Drawing on patent US8759510B2, “Nucleoside cyclicphosphates” (Gilead Pharmasset LLC, priority 2008, dated 2014), this text covers EC90 for 19 molecules.

The test system of one assay is HCV replicon RNA-containing Huh7 cells (clone A cells). Kind of assay: HCV replicon assay. Particulars: Hepatitis C virus, Huh-7, 96 h, read-out: CloneA EC90, Huh7 clone A replicon cells; incubation 4 days; replicon RNA by RT-PCR; ΔCt of 3.3 = 1-log 10 reduction (EC90). The assay is classed as cell-based. Here is the method:
HCV replicon assay. HCV replicon RNA-containing Huh7 cells (clone A cells; Apath, LLC, St. Louis, Mo.) were kept at exponential growth in Dulbecco's modified Eagle's medium (high glucose) containing 10% fetal bovine serum, 4 mM L-glutamine and 1 mM sodium pyruvate, 1× nonessential amino acids, and G418 (1,000 μg/ml). Antiviral assays were performed in the same medium without G418. Cells were seeded in a 96-well plate at 1,500 cells per well, and test compounds were added immediately after seeding. Incubation time 4 days. At the end of the incubation step, total cellular RNA was isolated (RNeasy 96 kit; Qiagen). Replicon RNA and an internal control (TaqMan rRNA control reagents; Applied Biosystems) were amplified in a single-step multiplex RT-PCR protocol as recommended by the manufacturer. The HCV primers and probe were designed with Primer Express software (Applied Biosystems) and covered highly conserved 5′-untranslated region (UTR) sequences (sense primer: 5′-AGCCATGGCGTTAGTA(T)GAGTGT-3′ (SEQ ID NO: 1); antisense primer: 5′-TTCCGCAGACCACTATGG-3′ (SEQ ID NO:2); and probe; 5′-FAM-[…]-TAMRA-3′ (SEQ ID NO:3)).
To express the antiviral effectiveness of a compound, the threshold RT-PCR cycle of the test compound was subtracted from the average threshold RT-PCR cycle of the no-drug control (ΔCtHCV). A ΔCt of 3.3 equals a 1-log 10 reduction (equal to the 90% effective concentration [EC90]) in replicon RNA levels. The cytotoxicity of the test compound could also be expressed by calculating the ΔCtrRNA values. The ΔΔCt specificity parameter could then be introduced (ΔCtHCV-ΔCtrRNA), in which the levels of HCV RNA are normalized for the rRNA levels and calibrated against the no-drug control.
(In general: Replicon systems follow genome replication, usually without infectious particles.)
The term EC90 denotes the point of the concentration-response curve where the effect stands at 90%. As to `COP1(=O)OC[C@H]2O[C@@H](n3cnc4c(NC5CCC5)nc(N)nc43)[C@](C)(F)[C@@H]2O1` (stereo partly drawn) [Compound 6, N^6-Cyclobutyl-9((4aR,6R,7R,7aR)-7-fluoro-2-methoxy-7-methyl-2-oxo-tetrahydro-2λ^5-furo[3,2-d][1,3,2]dioxaphosphinin-6-yl)-9H-purine-2,6-diamine], the EC90 turned out to be 1550 nM.

As for `CO[P@]1(=O)OC[C@H]2O[C@@H](n3ccc(N)nc3=O)[C@](C)(F)[C@@H]2O1` [Compound 5, 4-Amino-1-((2R,4aR,6R,7R,7aR)-7-fluoro-2-methoxy-7-methyl-2-oxo-tetrahydro-2λ^5-furo[3,2-d][1,3,2]dioxaphosphinin-6-yl)-1H-pyrimidin-2-one], the EC90 stood at 8060 nM.

With `COP1(=O)OC[C@H]2O[C@@H](n3cnc4c(O)nc(N)nc43)[C@](C)(F)[C@@H]2O1` (stereo partly drawn) [Compound 4, 2-Amino-9-((4aR,6R,7R,7aR)-7-fluoro-2-methoxy-7-methyl-2-oxo-tetrahydro-2λ^5-furo[3,2-d][1,3,2]dioxaphosphinin-6-yl)-9H-purin-6-ol], the EC90 was found to be 11700 nM.

Staying with this assay, now noted: Hepatitis C virus, Huh-7, 96 h; Huh7 clone A replicon cells; incubation 4 days; replicon RNA by RT-PCR; ΔCt of 3.3 = 1-log 10 reduction (EC90); read-out: CloneA EC90.
Take `C[C@@]1(F)[C@@H]2O[P@](=O)(OC3CCCC3)OC[C@H]2O[C@H]1n1cnc2c(N3CCC3)nc(N)nc21` [Example 32a, 6-Azetidin-1-yl-9-((4aR,6R,7R,7aR)-2-cyclopentyloxy-7-fluoro-7-methyl-2-oxo-tetrahydro-2λ^5-furo[3,2-d][1,3,2]dioxaphosphinin-6-yl)-9H-purin-2-ylamine]: the EC90 was 8540 nM.

Regarding `COc1nc(N)nc2c1ncn2[C@@H]1O[C@@H]2COP(=O)(OC(C)C)O[C@H]2[C@@]1(C)F` (single isomer, unassigned) [Example 43a], the EC90 came to 290 nM.

As to `C[C@@]1(F)[C@@H]2O[P@](=O)(OCC3CC3)OC[C@H]2O[C@H]1n1cnc2c(O)nc(N)nc21` (single isomer, unassigned) [Example 38b], the EC90 worked out at 26600 nM.

For `COc1nc(N)nc2c1ncn2[C@@H]1O[C@@H]2COP(=O)(O)O[C@H]2[C@@]1(C)F` [Example 41, (4aR,6R,7R,7aR)-6-(2-Amino-6-methoxy-purin-9-yl)-7-fluoro-7-methyl-2-oxo-tetrahydro-2λ^5-furo[3,2-d][1,3,2]dioxaphosphinin-2-ol], the EC90 was 98 nM.

In the case of `CCOc1nc(N)nc2c1ncn2[C@@H]1O[C@@H]2CO[P@](=O)(OCc3ccccc3)O[C@H]2[C@@]1(C)F` [Example 48, 9-((4aR,6R,7R,7aR)-2-Benzyloxy-7-fluoro-7-methyl-2-oxo-tetrahydro-2λ5-furo[3,2-d][1,3,2]dioxaphosphinin-6-yl)-6-ethoxy-9H-purin-2-ylamine], the EC90 turned out to be 320 nM.

For the molecule `CCOc1nc(N)nc2c1ncn2[C@@H]1O[C@@H]2COP(=O)(O)O[C@H]2[C@@]1(C)F` [Example 45, (4aR,6R,7R,7aR)-6-(2-Amino-6-ethoxy-purin-9-yl)-7-fluoro-7-methyl-2-oxo-tetrahydro-2λ^5-furo[3,2-d][1,3,2]dioxaphosphinin-2-ol], the EC90 came to 700 nM.

Regarding `COc1nc(N)nc2c1ncn2[C@@H]1O[C@@H]2CO[P@](=O)(OC(C)C)O[C@H]2[C@@]1(C)F` (single isomer, unassigned) [Example 43b], the EC90 was found to be 60 nM.

Turning to `COc1nc(N)nc2c1ncn2[C@@H]1O[C@@H]2COP(=O)(OCc3ccccc3)O[C@H]2[C@@]1(C)F` (stereo in doubt) [Example 44, 9-((2R,4aR,6R,7R,7aR)-2-Benzyloxy-7-fluoro-7-methyl-2-oxo-tetrahydro-2λ^5-furo[3,2-d][1,3,2]dioxaphosphinin-6-yl)-6-methoxy-9H-purin-2-ylamine], the EC90 is 53 nM.

Consider `C[C@@]1(F)[C@@H]2O[P@@](=O)(OCc3ccccc3)OC[C@H]2O[C@H]1n1ccc(=O)[nH]c1=O` [Compound 2b, 1-((2S,4aR,6R,7R,7aR)-2-Benzyloxy-7-fluoro-7-methyl-2-oxo-tetrahydro-2λ^5-furo[3,2-d][1,3,2]dioxaphosphinin-6-yl)-1H-pyrimidine-2,4-dione], for which the EC90 is 17700 nM.

Consider `C[C@@]1(F)[C@@H]2O[P@@](=O)(OCc3ccccc3)OC[C@H]2O[C@H]1n1ccc(=O)[nH]c1=O` (single isomer, unassigned) [Compound 2a], for which the EC90 is 25200 nM.

For the molecule `C[C@@]1(F)[C@@H]2O[P@@](=O)(OC3CCCC3)OC[C@H]2O[C@H]1n1cnc2c(N3CCC3)nc(N)nc21` [Example 32b, 6-Azetidin-1-yl-9-((4aR,6R,7R,7aR)-2-cyclopentyloxy-7-fluoro-7-methyl-2-oxo-tetrahydro-2λ^5-furo[3,2-d][1,3,2]dioxaphosphinin-6-yl)-9H-purin-2-ylamine], the EC90 came out at 4700 nM.

The assay is the same for the next values; noted with them: Huh7 clone A replicon cells; incubation 4 days; replicon RNA by RT-PCR; ΔCt of 3.3 = 1-log 10 reduction (EC90); read-out: CloneA EC90.
On to `CCOc1nc(N)nc2c1ncn2[C@@H]1O[C@@H]2COP(=O)(OC)O[C@H]2[C@@]1(C)F` (stereo partly drawn) [Compound 18, 6-Ethoxy-9-((4aR,6R,7R,7aR)-7-fluoro-2-methoxy-7-methyl-2-oxo-tetrahydro-2,5-furo[3,2-d][1,3,2]dioxaphosphinin-6-yl)-9H-purin-2-ylamine], for which the EC90 came out at 480 nM.

As to `CCOc1nc(N)nc2c1ncn2[C@@H]1O[C@@H]2COP(=O)(OC(C)C)O[C@H]2[C@@]1(C)F` (stereo partly drawn) [Compound 19, 6-Ethoxy-9-((4aR,6R,7R,7aR)-7-fluoro-2-isopropoxy-7-methyl-2-oxo-tetrahydro-2,5-furo[3,2-d][1,3,2]dioxaphosphinin-6-yl)-9H-purin-2-yl amine], the EC90 was determined as 600 nM.

Staying with this assay, now noted: read-out: CloneA EC90; Huh7 clone A replicon cells; incubation 4 days; replicon RNA by RT-PCR; ΔCt of 3.3 = 1-log 10 reduction (EC90).
As to `COP1(=O)OC[C@H]2O[C@@H](n3cnc4c(N5CCC5)nc(N)nc43)[C@](C)(F)[C@@H]2O1` (stereo partly drawn) [Compound 3, 6-Azetidin-1-yl-9-((4aR,6R,7R,7aR)-7-fluoro-2-methoxy-7-methyl-2-oxo-tetrahydro-2λ^5-furo[3,2-d][1,3,2]dioxaphosphinin-6-yl)-9H-purin-2-ylamine], the 90% effect concentration (EC90) is 750 nM.

In the case of `CO[P@@]1(=O)OC[C@H]2O[C@@H](n3ccc(=O)[nH]c3=O)[C@](C)(F)[C@@H]2O1` [Compound 1b, 1-((2S,4aR,6R,7R,7aR)-7-Fluoro-2-methoxy-7-methyl-2-oxo-tetrahydro-2λ^5-furo[3,2-d][1,3,2]dioxaphosphinin-6-yl)-1H-pyrimidine-2,4-dione], the EC90 was found to be 17400 nM.

With `CO[P@@]1(=O)OC[C@H]2O[C@@H](n3ccc(=O)[nH]c3=O)[C@](C)(F)[C@@H]2O1` [Compound 1a, 1-((2S,4aR,6R,7R,7aR)-7-Fluoro-2-methoxy-7-methyl-2-oxo-tetrahydro-2λ^5-furo[3,2-d][1,3,2]dioxaphosphinin-6-yl)-1H-pyrimidine-2,4-dione], the EC90 is 5350 nM.
